Test [1] deals with Arabidopsis thaliana. Briefly: A. thaliana growth test, watering with miPEP164a. The format is in vivo. Particulars: watered and sprayed. The procedure:
Watering was carried out every 2-3 days with water for the control plants and with water containing 0.1 μM or 1 μM of synthetic peptide (the sequence of which is identical to miPEP164a or to miPEP165a) for the test plants.

Test [2] has as its system miR164a. In words: Northern blot analysis of the accumulation of miR164a in roots treated with synthetic peptide. The format is in vivo, Arabidopsis thaliana. Particulars: 0.1 μM synthetic peptide solubilized in water vs water control, U6 loading control, FIG. 1. On the procedure: The photographs show the results of a Northern blot analysis of the accumulation of miR164a in roots treated with water (control, photograph on the left) or with 0.1 μM of a synthetic peptide, having a sequence identical to that of miPEP164a, solubilized in water (0.1 μM miPEP164a). The RNA U6 is used as a loading control, allowing the quantity of miR164a to be quantified.
The A. thaliana Col-0 plants are cultivated on MS basic medium supplemented with 10 g/l of sucrose.
Northern blot analysis was carried out according to the protocol described in Lauressergues et al. Plant J, 72(3):512-22, 2012.
The biological samples were homogenized in a buffer containing 0.1 M of NaCl, 2% SDS, 50 mM of Tris-HCl (pH 9), 10 mM of EDTA (pH 8) and 20 mM of mercaptoethanol, and the RNA was extracted twice with a phenol/chloroform mixture and precipitated with ethanol.
The RNA was loaded on PAGE 15% gel and transferred onto a nylon membrane (HybondNX, Amersham). The RNA was hybridized with an oligonucleotide probe, with radioactive labelling at its end, for detecting the RNA U6 or for miR164a.
The hybridizations were carried out at 55° C. The hybridization signals were quantified using a phosphorimager (Fuji) and normalized with the signal of the probe specific to the RNA U6.

Test [3] relates to Arabidopsis thaliana. In words: A. thaliana growth test, watering and spraying with miPEP319a. The format is in vivo. Conditions: 0.1 μM synthetic peptide, watered and sprayed, after 3 weeks of growth vs water control; FIG. 8. The procedure:
Arabidopsis thaliana seeds were germinated on GiFi, and then were transferred onto compost and were grown for 3 weeks.
Watering was carried out every 2-3 days and spraying was carried out every day, with water for the control plants and with water containing 0.1 μM of synthetic peptide (the sequence of which is identical to miPEP319a) for the test plants.

In test [4] the test system is AtmiR319a. In words: qPCR of AtmiR319a relative expression in plants overexpressing AtmiPEP319a. The format is in vivo, Arabidopsis thaliana. Conditions: plant overexpressing AtmiPEP319a (35S promoter) vs control plant; n=10; FIG. 7. The procedure: The error bar corresponds to the standard error of the mean (number of individuals=10).
The RNA was extracted using the reagent Tri-Reagent (MRC) according to the manufacturer's instructions, apart from precipitation of the RNA, which was carried out with 3 volumes of ethanol. Reverse transcription of the RNA was carried out using the stem-loop specific primer RTprimer in combination with hexamers in order to carry out reverse transcription of RNA of high molecular weight. Briefly, 1 μg of RNA was added to the stem-loop specific primer (0.2 μM), hexamer (500 ng), buffer RT (1×), the enzyme SuperScript Reverse transcriptase (SSIII) (one unit), dNTPs (0.2 mM each), DTT (0.8 mM) in a final reaction mixture of 25 μl. In order to carry out the reverse transcription, a pulsed reverse transcription reaction was carried out (40 repetitions of the following cycle: 16° C. for 2 minutes, 42° C. for one minute and 50° C. for one second, followed by final inactivation of the reverse transcription at 85° C. for 5 minutes).
The total RNA of the roots of M. truncatula or of the leaves of tobacco was extracted using the extraction kit RNeasy Plant Mini Kit (Qiagen). Reverse transcription was carried out using the reverse transcriptase SuperScript II (Invitrogen) starting from 500 ng of total RNA. Three repetitions (n=3) were carried out, each with two technical repetitions. […]
(Quantitative PCR measures a nucleic acid by following its amplification.)

The mark [5] stands for this setting: 1 μM synthetic peptide, after 39 days of growth vs water control, FIG. 3.

“Also recorded” adds a separate entry of the source.

Regarding “miPEP164a: Peptide encoded by miORF on pri-miR164a of A. thaliana, SEQ ID NO: 2, MPSWHGMVLLPYVKHTHASTHTHTHNIYGCACELVFH (listed as Arabidopsis thaliana)”, the plant growth entry in test [1] (0.1 μM synthetic peptide, after 3 weeks of growth vs water control, FIG. 2) is given as “increases the plant's growth significantly; also recorded: increases the plants' growth significantly”. Moreover, in test [1] (setting [5]), the number of flowers entry was “increases the plant's growth and number of flowers significantly”; the plant growth result is “increases the plant's growth and number of flowers significantly”. In addition, in test [2], the “accumulation of miR164a” value is listed as “increase in the accumulation of miR164a”.

For “miPEP319a: Peptide encoded by miORF on pri-miR319a of A. thaliana, SEQ ID NO: 10, MNIHTYHHLLFPSLVFHQSSDVPNALSLHIHTYEYIIVVIDPFRITLAFR (listed as Arabidopsis thaliana)”, in test [3], the plant growth result is recorded as “increases the plant's growth significantly”. In addition, in test [4], the “accumulation (relative expression) of AtmiR319a” value is “increase in the accumulation of Atmir319a”.

For the origin of these results see patent publication US10563214B2, “Use of micropeptides for promoting plant growth” (UNIVERSITE TOULOUSE III-PAUL SABATIER, priority 2014, dated 2020).
